≈ marks a conversion by molar mass, not a printed value. Where “and” joins values, the source holds several entries; their conditions need not be identical. Identical values can stand only once. Like-named read-outs stand apart in the source and are kept apart here.
How the values were obtained:
[1] = biological target: T1, Mtb L-alanine dehydrogenase (AlaDH, Rv2780) (Mycobacterium tuberculosis, UniProt P9WQB1); format: binding; conditions: for Integrated band volume / Ratio against N6-methyl ado / Eluted AlaDH compared to N6-methyl ado / Eluted protein amount relative to N6-methyl ado: SDS gel densitometry; for Integrated band volume / Ratio against N6-methyl ado: Fig 3a
[2] = biological target: Mtb L-alanine dehydrogenase (AlaDH) (Mycobacterium tuberculosis, UniProt P9WQB1); format: biochemical
[3] = tested on: Mtb in murine primary bone marrow-derived macrophages (BMDMs); format: cell-based, Mycobacterium tuberculosis H37Rv; conditions: 500 μM, 3 days
[4] = tested on: Mtb aldehyde dehydrogenase (Rv0223c, AldDH); format: biochemical, Mycobacterium tuberculosis; conditions: 1 mM inhibitor, 1 mM NAD, 10 mM propionaldehyde
[5] = biological target: T2, human malate DH 2 (Homo sapiens, UniProt P40926); test: Activity assay against human malate DH 2; format: biochemical
T2 sequence (P40926 25-338): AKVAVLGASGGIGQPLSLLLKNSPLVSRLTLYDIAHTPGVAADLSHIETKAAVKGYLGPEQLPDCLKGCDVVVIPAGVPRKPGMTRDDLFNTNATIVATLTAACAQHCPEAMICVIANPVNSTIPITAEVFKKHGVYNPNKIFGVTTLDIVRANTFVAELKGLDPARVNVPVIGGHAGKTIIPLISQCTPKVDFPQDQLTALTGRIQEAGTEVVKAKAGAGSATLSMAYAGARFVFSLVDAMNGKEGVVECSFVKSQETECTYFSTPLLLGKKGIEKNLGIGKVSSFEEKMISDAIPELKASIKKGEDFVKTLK

[6] = tested on: Mycobacterium tuberculosis H37Rv cells; test: Minimum inhibitory concentration assay (microfluidic agarose channel chip); format: cell-based
[7] = biological target: Mycobacterium tuberculosis L-alanine dehydrogenase (Mycobacterium tuberculosis, UniProt P9WQB1); test: biochemical; format: biochemical; conditions: for Ki: competitive inhibition mode vs NAD, value (S.D.) in table
[8] = biological target: T1, Mtb L-alanine dehydrogenase (AlaDH, Rv2780); conditions: cited from earlier work
[9] = compound at 1 mM, SDS-PAGE of eluate

Mtb L-alanine dehydrogenase (AlaDH), sequence (P9WQB1 whole entry, looked up): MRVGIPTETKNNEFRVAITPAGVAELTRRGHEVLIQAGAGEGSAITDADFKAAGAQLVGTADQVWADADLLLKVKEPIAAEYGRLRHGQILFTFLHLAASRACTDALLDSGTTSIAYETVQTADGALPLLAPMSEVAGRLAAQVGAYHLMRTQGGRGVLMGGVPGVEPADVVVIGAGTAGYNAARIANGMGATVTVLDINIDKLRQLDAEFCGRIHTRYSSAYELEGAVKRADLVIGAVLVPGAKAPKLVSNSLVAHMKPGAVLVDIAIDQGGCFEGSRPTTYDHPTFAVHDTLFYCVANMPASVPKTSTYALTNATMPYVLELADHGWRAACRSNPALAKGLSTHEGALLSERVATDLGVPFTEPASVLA
Mycobacterium tuberculosis L-alanine dehydrogenase, sequence (P9WQB1 whole entry, looked up): as above
T1 sequence (P9WQB1 whole entry, looked up): as above

Cc1nc(N)c2ncn([C@@H]3O[C@H](CO)[C@@H](O)[C@H]3O)c2n1 [D28, C2-methyl adenosine]
Elution of AlaDH from F3GA dye resin (displacement of the dye) in DLAC [1]: did not show displacement | Initial velocity (vi) of the AlaDH reaction with compound [2]: 1.769 x10^-3 [NADH]OD340/min | Reduction of initial velocity (vi) of the AlaDH reaction [2]: 4%

CNc1ncnc2c1ncn2[C@@H]1O[C@H](CO)[C@@H](O)[C@H]1O [D30, N6-methyl adenosine]
Integrated band volume [1]: 41,418 | Ratio against N6-methyl ado [1]: 1 | Elution of AlaDH from F3GA dye resin (displacement of the dye) in DLAC [1, 9]: displaced the F3GA dye from AlaDH | Reduction of initial velocity (vi) of the AlaDH reaction ([2]; 1 mM inhibitor, 1 mM NAD, 17 mM L-alanine): 33% | Initial velocity (vi) of the AlaDH reaction with compound ([2]; no inhibition vi 1.842x10^-3, 1 mM inhibitor): 1.231x10^-3 [NADH]OD340/min | Intracellular growth of Mtb in BMDMs [3]: significantly decreased | Inhibition of AldDH activity [4]: none | Inhibition of human malate DH 2 activity [5]: no noticeable inhibition | MIC [6]: ~10 µg/mL (≈ 35.6 µM) | Ki [7]: 860 µM and 861 µM

Nc1ncnc2c1ncn2[C@@H]1O[C@H](COP(=O)(O)OP(=O)(O)OP(=O)(O)O)[C@@H](O)[C@H]1O [ATP, reference compound]
Elution of AlaDH from F3GA dye resin (displacement of the dye) in DLAC [1, 9]: eluted the target AlaDH enzyme | Binding in DLAC assay (previous data) [8]: bound strongly

CCCNc1ncnc2c1ncn2[C@@H]1O[C@H](CO)[C@@H](O)[C@H]1O [N6-propyl adenosine]
Eluted AlaDH compared to N6-methyl ado [1]: 3.05 fold | Integrated band volume [1]: 126,378 | Ratio against N6-methyl ado [1]: 3.05 | melting point: 162 to 165.4 °C | Ki [7]: 110 µM and 113 µM

CCNc1ncnc2c1ncn2[C@@H]1O[C@H](CO)[C@@H](O)[C@H]1O [N6-ethyl adenosine]
Eluted AlaDH compared to N6-methyl ado [1]: 2.12 fold | Integrated band volume [1]: 87,674 | Ratio against N6-methyl ado [1]: 2.12 | melting point: 197.1 to 198.4 °C | Ki [7]: 520 µM and 521 µM

CC(C)CNc1ncnc2c1ncn2[C@@H]1O[C@H](CO)[C@@H](O)[C@H]1O [N6-isobutyl adenosine]
Integrated band volume [1]: 143,252 | Ratio against N6-methyl ado [1]: 3.45 | Eluted AlaDH compared to N6-methyl ado ([1]; listed as N6-isobutyl ado): 3.45 fold and ~ 3.5 fold | vi of wild-type AlaDH after adding compound ([2]; […], without compound vi 1.922 x10^-3): 0.734 x10^-3 [NADH]OD340/min | Inhibition of AldDH activity [4]: no inhibition | Inhibition of human malate DH 2 activity [5]: no noticeable inhibition | Ki [7]: 80 µM and 79 µM

NC(=O)C1=CN([C@@H]2O[C@H](COP(=O)(O)OP(=O)(O)OC[C@H]3O[C@@H](n4cnc5c(N)ncnc54)[C@H](O)[C@@H]3O)[C@@H](O)[C@H]2O)C=CC1 [NADH]
Binding in DLAC assay (previous data) [8]: bound strongly

CC(=O)Nc1ncnc2c1ncn2[C@@H]1O[C@H](CO)[C@@H](O)[C@H]1O [N6-acetyl ado]
Eluted protein amount relative to N6-methyl ado [1]: 12% | Integrated band volume [1]: 5,015 | Ratio against N6-methyl ado [1]: 0.12 | Inhibitory effect on AlaDH activity [7]: did not reveal any inhibitory effect

CC(C)C(=O)Nc1ncnc2c1ncn2[C@@H]1O[C@H](CO)[C@@H](O)[C@H]1O [N6-isobutyoyl adenosine]
Eluted protein amount relative to N6-methyl ado [1]: 70% | Integrated band volume [1]: 29,087 | Ratio against N6-methyl ado [1]: 0.70 | Ki [7]: 3710 µM

Reference: paper PMC9671377, “Label-free affinity screening, design and synthesis of inhibitors targeting the Mycobacterium tuberculosis L-alanine dehydrogenase” (PLOS ONE, 2022)
